This is an account of results in ChEMBL document CHEMBL1134238, “Synthesis of metabolically blocked paclitaxel analogues” (Bioorg Med Chem Lett, 2001).

For test [1], the system named is HCT-116. As to the kind of experiment: Compound was tested for cytotoxicity against human colon tumor cell line (HCT116). Format: functional, cell-based.
Test [2] deals with Tubulin alpha chain (Sus scrofa) (UniProt P02550). As to the kind of experiment: Compound was tested in vitro for inhibition of tubulin polymerization, expressed as ratio to that obtained for paclitaxel. Format: functional. Particulars: Homo sapiens.
In test [3] the test system is M109. As to the kind of experiment: Compound was tested in vivo against M109 using Madison murine lung carcinoma (M109) tumor model at 200 mg/kg. In kind it is functional, Mus musculus.
Test [4] relates to M109. As to the kind of experiment: Compound was tested in vivo against M109 using Madison murine lung carcinoma (M109) tumor model at 32 mg/kg. Format: functional, Mus musculus.
The test system of test [5] is M109. Put plainly: Compound was tested in vivo against M109 using Madison murine lung carcinoma (M109) tumor model at 40 mg/kg. In kind it is functional, Mus musculus.

pIC50: −log10 of the molar value.

Sequence of Tubulin alpha chain (Sus scrofa) (P02550 whole entry, looked up): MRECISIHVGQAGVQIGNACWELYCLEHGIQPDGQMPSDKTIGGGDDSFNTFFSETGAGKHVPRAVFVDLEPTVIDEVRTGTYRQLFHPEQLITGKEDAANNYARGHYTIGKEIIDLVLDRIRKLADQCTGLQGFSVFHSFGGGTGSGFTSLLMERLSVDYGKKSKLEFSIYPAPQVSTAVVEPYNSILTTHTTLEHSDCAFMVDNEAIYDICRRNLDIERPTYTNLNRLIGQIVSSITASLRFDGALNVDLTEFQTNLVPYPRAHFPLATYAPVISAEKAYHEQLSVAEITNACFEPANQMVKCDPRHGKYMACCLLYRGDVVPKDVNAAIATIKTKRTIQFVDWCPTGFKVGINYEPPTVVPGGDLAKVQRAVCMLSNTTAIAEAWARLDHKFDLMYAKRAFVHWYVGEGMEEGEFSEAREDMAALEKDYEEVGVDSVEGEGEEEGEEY

For orientation: pIC50 means the negative decadic logarithm of the IC50, by convention in mol/L. A low value points to a large IC50. In the case of `CC(=O)O[C@H]1C(=O)[C@@]2(C)C([C@H](OC(=O)c3ccccc3)[C@]3(O)C[C@H](OC(=O)[C@H](O)[C@@H](NC(=O)c4ccccc4)c4ccccc4)C(C)=C1C3(C)C)[C@]1(OC(C)=O)CO[C@@H]1[C@@H](Br)[C@@H]2O` (some centres undefined), the negative-log IC50 (pIC50) in test [1] is 8.59. The Tubulin polymerization in test [2] stood at 1.1.
In general, T/C refers to the ratio of treated to control. The molecule `CC(=O)O[C@H]1C(=O)[C@@]2(C)C([C@H](OC(=O)c3ccccc3)[C@]3(O)C[C@H](OC(=O)[C@H](O)[C@@H](NC(=O)c4ccccc4)c4ccccc4)C(C)=C1C3(C)C)[C@]1(OC(C)=O)CO[C@@H]1[C@@H](Cl)[C@@H]2O` (some centres undefined) returned a T/C in test [3] of 203%. This molecule also showed a negative-log IC50 (pIC50) in test [1] of 8.92. Moreover, the Tubulin polymerization in test [2] was determined as 0.8.
Turning to `CC(=O)O[C@H]1C(=O)[C@@]2(C)C([C@H](OC(=O)c3ccccc3)[C@]3(O)C[C@H](OC(=O)[C@H](O)[C@@H](NC(=O)c4ccccc4)c4ccccc4)C(C)=C1C3(C)C)[C@]1(OC(C)=O)CO[C@@H]1[C@@H](F)[C@@H]2O` (some centres undefined), the pIC50 in test [1] was 8.85. Further, the Tubulin polymerization in test [2] was 1.
Molecule `CC(=O)O[C@H]1C(=O)[C@@]2(C)C([C@H](OC(=O)c3ccccc3)[C@]3(O)C[C@H](OC(=O)[C@H](O)[C@@H](NC(=O)OC(C)(C)C)c4ccccc4)C(C)=C1C3(C)C)[C@]1(OC(C)=O)CO[C@@H]1C[C@@H]2O` (some centres undefined) showed a negative-log IC50 (pIC50) in test [1] of 8.74. The Tubulin polymerization in test [2] was 0.7. Moreover, the T/C in test [4] was 177%.
In turn, `CC(=O)O[C@H]1C(=O)[C@@]2(C)[C@H]([C@H](OC(=O)c3ccccc3)[C@]3(O)C[C@H](OC(=O)[C@H](O)[C@@H](NC(=O)c4ccccc4)c4ccccc4)C(C)=C1C3(C)C)[C@]1(OC(C)=O)CO[C@@H]1C[C@@H]2O` [PACLITAXEL] had a T/C in test [5] of 215%. The Tubulin polymerization in test [2] was determined as 1.
Turning to `CC(=O)O[C@H]1C(=O)[C@@]2(C)C([C@H](OC(=O)c3ccccc3)[C@]3(O)C[C@H](OC(=O)[C@H](O)[C@@H](NC(=O)OC(C)(C)C)c4ccccc4)C(C)=C1C3(C)C)[C@]1(OC(C)=O)CO[C@@H]1[C@@H](F)[C@@H]2O` (some centres undefined), in test [1], the pIC50 is 9.70. Besides, in test [2], the Tubulin polymerization worked out at 0.6.
